Earlier results as cited in patent US20220331377A1, “DELIVERY VEHICLE FOR IN SITU DELIVERING OF PHARMACEUTICAL AGENTS” (priority 2019, published 2022).

Test system: C. difficile
Conditions: patients; P=0.05; cited from earlier work

In the case of `CN[C@H](CC(C)C)C(=O)N[C@H]1C(=O)N[C@@H](CC(N)=O)C(=O)N[C@H]2C(=O)N[C@H]3C(=O)N[C@H](C(=O)N[C@H](C(=O)O)c4cc(O)cc(O)c4-c4cc3ccc4O)[C@H](O)c3ccc(c(Cl)c3)Oc3cc2cc(c3O[C@@H]2O[C@H](CO)[C@@H](O)[C@H](O)[C@H]2O[C@H]2C[C@](C)(N)[C@H](O)[C@H](C)O2)Oc2ccc(cc2Cl)[C@H]1O` [vancomycin], the “recurrent C. difficile disease (RCDD)” value is given as 50%.
